From a melting point compilation (Tetko et al.; mined from patent text by program, amines drawn as free bases though some values may be those of a salt)

Row | melting point [°C] | Structure (SMILES)
1 | 51 to 54 | Cc1cc(C)cc(C(=O)N2CCN(C(=O)CCNC3CCN(Cc4ccccc4)CC3)C(c3ccc(Cl)c(Cl)c3)C2)c1 (configuration not stated)
2 | 210 to 212 | O=C(NCc1ccc([N+](=O)[O-])cc1)c1ccc2cccnc2c1O
3 | 116 to 118 | O=C(C=Cc1ccccc1)c1ccc(OCc2ccccc2)cc1O
4 | 196 to 198 | CC(=O)NC[C@H]1CN(c2ccc(N3CCC(=C(C#N)n4ccnc4)CC3)c(F)c2)C(=O)O1
5 | 192 to 196 | NC(=O)CCc1cc(C(=O)O)cc(S(N)(=O)=O)c1Oc1ccccc1
6 | 72 to 77 | CCNc1nc(=S)n(Cc2ccc(OC)c(OC3CCCC3)c2)c2nc[nH]c12
7 | 223 to 224 | CCn1cc(Cl)c2cnc(NC(=O)c3ccc([C@](C)(O)CO)cc3)cc21
8 | 139 to 140 | COc1ccc2cc(CNc3ccc(O)cc3)ccc2c1
9 | 238 to 240 | CN1C(=O)CC(C(=O)Nc2nccs2)C(=O)c2ccc(Cl)cc21 (configuration not stated)
10 | 202 to 204 | COCOc1ccc(-c2ncc3ncc(N4CCCCC4=O)cc3n2)cc1
11 | 153 | O=CNCCN1CCC(Nc2nc3ccccc3n2Cc2ccc(F)cc2)CC1
12 | 124 to 126 | CC(C)N1CCC(C2c3ccccc3C=Cc3ccccc32)CC1
13 | 93 to 95 | CON(C)C(=O)Nc1ccc(CN2OCC(C)(C)C2=O)c(Cl)c1
14 | > 260 | O=C(c1ccc(Cl)cc1)c1ccc2nccc(C(=O)O)c2c1
15 | 100 to 103 | CN(C)S(=O)(=O)c1ccc(C(O)c2cccc(O[Si](C)(C)C(C)(C)C)c2)cc1 (configuration not stated)
16 | 118 to 120 | CN1CCN(c2c(-c3ccccc3)sc3ccccc23)CC1
17 | 58 to 60 | O=C(Cc1ccccc1)c1cccc(OCc2ccccc2)c1
18 | 158 | Cn1c(=O)cnc2cccc(Oc3cc(-c4ccc(C(F)(F)F)cc4)ncn3)c21
19 | 130 | Cn1nc(C(=O)O)nc1NCCCOc1cccc(CN2CCCCC2)c1
20 | 92 to 97 | O=Cc1ccc(OCCc2coc(-c3ccccc3)n2)cc1
21 | 115 to 116 | Cc1ccc(S(=O)(=O)NCc2ccccc2)cc1
22 | 315 to 325 | NC(=O)c1cc2[nH]c3ccccc3c(=O)n2n1
23 | 112 to 113 | Cc1cccc(CC(=O)O)c1OCCCc1cn(-c2ccc(Cl)cn2)nc1C(C)(C)C

Row | melting point [°C] | Structure (SMILES)
24 | 228 to 230 | N#Cc1ccc2[nH]c(O)c(-c3ccc(CN4CCOCC4)cn3)c2c1
25 | 269 to 271 | O=c1[nH]c2cc(Cl)ccc2c(O)c1-c1cccc(Oc2ccccn2)c1
26 | 191 to 192 | COc1ccc(C(=O)C2=C(c3ccccc3)c3ccc(OC)cc3S2=O)cc1 (configuration not stated)
27 | 202 to 204 | CC(=O)N1N=C(c2ccc([N+](=O)[O-])cc2)c2cc3c(cc2C=C1C)OCCOC3
28 | 105 to 107 | CCOc1nc(NCc2ccco2)nc(Nc2ccc3c(c2)ncn3C)n1
29 | 100 | CC(NC(=O)Cc1cc(F)cc(F)c1)C(=O)NC1C(=O)NC(c2ccncc2)c2ccccc21 (configuration not stated)
30 | 66 to 68 | COc1ccc(CSc2cc(Cl)ccc2CN(C)C)cc1
31 | 90 to 92 | CCCc1c(SCCCOc2ccc(C#N)cc2)ccc(C(C)=O)c1O
32 | 311 to 314 | Cc1ccc(OC2CCN(C(=O)C(=O)Nc3ccc4nc(S)[nH]c4c3)CC2)cc1
33 | 180 to 185 | CS(=O)(=O)c1ccc2nc(NC(=N)N)nc(-c3ccccc3)c2c1
34 | 209 | CCOC(=O)C1=C(C)Nc2nc(N3CCOCC3)nc(N3CCOCC3)c2C1c1ccncc1 (configuration not stated)
35 | 53 to 54 | COc1ccc(C(C)(O)c2cc(OCc3ccccc3)ccc2OC)cn1 (configuration not stated)
36 | 236 to 238 | CCNC(=O)N1CCN(c2ccc(NC(=O)c3cc(=O)c4cc(F)cc(N5CCN(C)CC5)c4o3)cc2)CC1
37 | 164 to 166 | CC(O)(C(=O)Nc1ccc(S(=O)(=O)N2CCCCC2)cc1)C(F)(F)F (configuration not stated)
38 | 116 to 120 | CSCC(C)NC(=O)c1c(I)cccc1C(=O)Nc1ccc(C2(C(F)(F)F)CC(c3ccc(Cl)cc3)=NO2)cc1C (configuration not stated)
39 | 95 to 97 | COc1ccc2c(c1)c(CC(=O)O)c(C)n2C(=O)c1ccc(Cl)c(Cl)c1
40 | 146 to 147 | CCCn1c(=O)n(-c2ccc3c(c2)OCO3)c2ncc(NC(=O)OCC)cc21
41 | 67 to 68 | CCNC(=O)[C@@H]1C[C@H](SCc2ccc(OC)cc2)CN1
42 | 300 | CC1CCc2c(C#N)ccc3c(=O)c(C(=O)O)cn1c23 (configuration not stated)
43 | 201 to 204 | O=C(ON1C(=O)CCC1=O)c1ccc(-c2ccc(S(=O)(=O)N3CCCC(CO)C3)cc2)[nH]c1=O (configuration not stated)
44 | 250 | Cc1nc(NC(=O)c2cnn3c(C(F)(F)F)cc(-c4ccc(C(F)(F)F)cc4)nc23)sc1S(=O)(=O)NC(C)(CO)CO
45 | 130 to 136 | Cc1ccc(S(=O)(=O)NCC(O)(Cn2cncn2)c2ccc(F)cc2F)cc1 (configuration not stated)

The next lines start with the compound.

Row | Structure (SMILES) | melting point [°C]
46 | Cc1cc(Br)cc(C)c1NC(=O)C(C)Br (configuration not stated) | 187 to 189
47 | N#Cc1cc(C2=NOC(c3cc(Cl)cc(Cl)c3)(C(F)(F)F)C2)ccc1F (configuration not stated) | 136 to 139
48 | CCCCCCCC/C=C\CCCCCCCC(=O)CCCNC(=O)CCNC(=O)C1OC(C)(C)OCC1(C)C (configuration not stated) | 45 to 47
49 | CN=C(SC)N(C)Cc1cccnc1Cl | 106 to 113
50 | COc1cc(CNc2n[nH]c3ncnc(Nc4cccc(Cl)c4)c23)cc(OC)c1OC | 240 to 245
51 | CCOCCc1ccc(OCCNc2ncnc3oc(C)c(C)c23)c(C)c1 | 92 to 93
52 | CC1(CF)C=C(C(=O)NCCC#N)c2cc([N+](=O)[O-])ccc2O1 (configuration not stated) | 165 to 167
53 | CCN1C(=O)C2CCc3c(Br)ccc(OC)c3C2C1=O (configuration not stated) | 170 to 174
54 | Cc1c(O)ccc2c(=O)c(-c3cccc(C(F)(F)F)c3)coc12 | 283 to 284
55 | CS(=O)(=O)c1ccc(-c2cccn2-c2ccccc2)cc1 | 140 to 142
56 | CCOc1cc(C2CSCCC2=O)ccc1OC (configuration not stated) | 108 to 110
57 | CC(c1ccc(I)cc1)C(O)(Cn1cncn1)c1ccc(F)cc1F (configuration not stated) | 169 to 171
58 | CCOC(=O)c1cn([C@@H](C)COS(C)(=O)=O)c2c(F)c(-c3cc(C)nc(C)c3)c(F)cc2c1=O | 180 to 183
59 | CC1(CC(=O)O)OCCc2nc(-c3ccccc3)sc21 (configuration not stated) | 143 to 145
60 | ClC1(NC2(Cc3ccncc3)NN=Cc3ccncc32)C=CC=CC1 (configuration not stated) | 220 to 221
61 | CNCC(O)(Cn1cncn1)c1ccc(Cl)cc1Cl (configuration not stated) | 98 to 101
62 | CSC(SC)(SC)C(O)c1ccc(-n2cccc2)cc1 (configuration not stated) | 101 to 103
63 | O=c1[nH]c(-c2ccccn2)nc(C(F)(F)F)c1I | 186 to 187
64 | N#Cc1cccc(OS(N)(=O)=O)c1 | 101 to 104

Row | Structure (SMILES) | melting point [°C]
65 | CCOC(=O)c1cc(=O)c2cc3c(c(CC4CO4)c2o1)CCCC3 (configuration not stated) | 138 to 140
66 | Nc1nc(N)nc(N2CC=CCC2)n1 | 200 to 202
67 | Nc1c2c(nc3ccc(Br)cc13)CCC2 | 236 to 238
68 | CC(C)c1nc(N)c(N)c(=O)[nH]1 | 198 to 200
69 | CC(C)(CCCSCSCCCC(C)(C)C(=O)O)C(=O)O | 72 to 72.5
70 | N#Cc1c(SC(F)(F)F)c(N)n(-c2c(Cl)cc(C(F)(F)F)cc2Cl)c1C#N | 175 to 177
71 | CC1=C(CC(=O)O)c2cc(F)c(F)cc2C1=Cc1ccc(S(C)=O)cc1 (configuration not stated) | 200 to 210
72 | COc1cc([N+](=O)[O-])c2nc(N)ccc2c1 | 195 to 197
73 | Nc1ncnc2c1ncn2CCO | 236
74 | C(=CCN1C(c2ccccc2)CCCC1c1ccccc1)CN1C(c2ccccc2)CCCC1c1ccccc1 (configuration not stated) | 197 to 200
75 | Cc1nnn(CC(I)=C(I)I)n1 | 111
76 | CC(=O)NCc1cc([N+](=O)[O-])ccc1N | 208 to 210
77 | CCN(CC)Cc1cccc(OCCCNc2nc(N)nn2C)c1 | 68 to 69
78 | CC(C)(C)c1cc(-n2nc3ccc(Cl)cc3n2)c(O)c(C(C)(C)C)c1 | 151 to 154
79 | Nc1ccc(S(F)(F)(F)(F)F)cc1[N+](=O)[O-] | 132 to 135
80 | CCOC(=O)C=CCCc1cn(C(c2ccccc2)(c2ccccc2)c2ccccc2)cn1 | 86 to 88
81 | O=C1Nc2ccc(Cl)cc2Cc2sccc21 | 264 to 266
82 | CC1Nc2ccc(S(=O)(=O)N(C)C)cc2S(=O)(=O)N1 (configuration not stated) | 210 to 212
83 | CCCCc1c(C(=O)OCC)cc(OC(C)=O)c2c(OC)cccc12 | 86 to 88

Row | Structure (SMILES) | melting point [°C]
84 | CCNC(=O)c1nc2n(n1)-c1ccc(Cl)cc1C(c1ccccc1F)=NC2 | 232 to 234
85 | COc1cc(N2CCC(N3CCN(C)CC3)CC2)ccc1N | 94 to 99
86 | N#Cc1c(N)oc2ccccc2c1=O | 315 to 320
87 | N#Cc1cccc(-c2nc(N)cc3cccnc23)c1 | 102 to 104
88 | CCn1c(C(O)(c2ccccc2)c2ccccc2)nc(-c2ccncc2)c1-c1ccc(Cl)cc1 | 222 to 223
89 | COc1cc(C)c(C=CC(C)=CC=O)cc1C | 90 to 92
90 | CC(=O)OCC1OC(n2cc(C3=C(c4c[nH]c5ccccc45)C(=O)N(C)C3=O)c3cccnc32)C(OC(C)=O)C(OC(C)=O)C1OC(C)=O (configuration not stated) | 119 to 121
91 | CC(C)(C)c1cc2c(c(C(C)(C)C)c1)O[PH](=O)Oc1c(cc(C(C)(C)C)cc1C(C)(C)C)C2 | 164
92 | CC1(C)COc2cc(Cl)c(Cl)cc2C(O)(c2ccccn2)C1 (configuration not stated) | 128
93 | COCCOc1ccc(CC(C)CO)c(Oc2ncc(C(F)(F)F)cc2Cl)c1 (configuration not stated) | 84 to 86
94 | CN(CCO)C(=O)NC(CS)Cc1ccccc1 (single isomer, unassigned; (+)) | 86
95 | CCCCCCc1cc(SC)ccc1O | 42 to 44
96 | O=C(CBr)c1cccc2nnsc12 | 155 to 157
97 | OCCCn1c(S)nc2ccccc21 | 110
98 | CCCCCCCCC1(CCCCCCCC)c2cc(Br)ccc2-c2ccc(Br)cc21 | 52 to 54
99 | CN1Cc2c(Br)cc3c(c2C1)NC(=O)C3=O | > 300
100 | C=C1CSC(=C(C#N)n2ccnc2)S1 | 116
101 | CC1CC(C(=O)O)NC1=O (configuration not stated) | 169 to 170
102 | CN1CC=C(c2c[nH]c3ccc(NS(=O)(=O)N(C)C)cc23)CC1 | 207 to 208
